According to patent US8476451B2 (priority 2007, dated 2013):
Converted amounts (≈) assume the structure as drawn.

Legend:
[1] = test system: L929 mouse fibroblast cells; assay: Growth inhibition, MTT assay, L929; format: cell-based; settings: for Cytotoxicity / activity relative to tubulysin D, in words: statement on Table 2 cell lines
Method: (§1) Cell lines were obtained from the American Type Culture Collection (ATCC) and the German Collection of Microorganisms and Cell Cultures (DSMZ). All cell lines were cultivated under conditions recommended by their respective depositors. Growth inhibition was measured in microtiter plates. Aliquots of 120 μl of the suspended cells (50,000/mL) were given to 60 μL of a serial dilution of the inhibitor and incubated at 37° C. and 10% CO2. After 5 days, when control cells had grown to confluence state, the metabolic activity in each well was determined using an MTT assay.

[2] = test system: SW-480 human colon adenocarcinoma cells; assay: Growth inhibition, MTT assay, SW-480; format: cell-based; settings: for Activity relative to tubulysin D in SW-480, in words: colon cancer cell line SW-480
Method: as §1

[3] = test system: KB-3-1 human cervix carcinoma cells; assay: Growth inhibition, MTT assay, KB-3-1; format: cell-based; settings: KB 3-1, 120 h; human cervix carcinoma (DSMZ ACC 158); MTT after 5 days; read-out: IC50 (ng/mL) KB-3-1
Method: as §1

[4] = Growth inhibition, MTT assay, L929; format: cell-based, Mouse; settings: mouse, L929 mouse fibroblast cells; cell line not given; read-out: Cytotoxicity (text, refers to Table 2)
Method: as §1

| Compound | Cytotoxicity / activity relative to tubulysin D, in words [1] | also measured |
| --- | --- | --- |
| CC[C@H](C)[C@H](N=[N+]=[N-])C(=O)N(COC(=O)CC(C)C)[C@H](C[C@@H](OC(C)=O)c1nc(C(=O)N[C@@H](Cc2ccccc2)C[C@H](C)C(=O)O)cs1)C(C)C [Analogue 8, 4-[(2-{1-acetoxy-3-[(2-azido-3-methyl-pentanoyl)-(3-methyl-butyryloxymethyl)-amino]-4-methyl-pentyl}-thiazole-4-carbonyl)-amino]-2-methyl-5-phenyl-pentanoic acid] | drastic decrease in activity | – |
| CC[C@H](C)[C@H](NC(=O)CN(C)C)C(=O)N(COC(=O)CC(C)C)[C@H](C[C@@H](OC(C)=O)c1nc(C(=O)N[C@@H](Cc2ccccc2)C[C@H](C)C(=O)O)cs1)C(C)C [Analogue 6, 4-[(2-{1-acetoxy-3-[[2-(2-dimethylamino-acetylamino)-3-methyl-pentanoyl]-(3-methyl-butyryloxymethyl)-amino]-4-methyl-pentyl}-thiazole-4-carbonyl)-amino]-2-methyl-5-phenyl-pentanoic acid] | essentially equipotent with tubulysin D | Activity relative to tubulysin D in SW-480, in words [2]: more active than tubulysin D |
| CC[C@H](C)[C@H](NC(=O)[C@H]1CCCCN1C)C(=O)N(COC(=O)CC(C)C)[C@H](C[C@@H](OC(C)=O)c1nc(C(=O)NCCCC(=O)O)cs1)C(C)C [Analogue 3, 3-Methyl-butyric acid ((1-{2-acetoxy-2-[4-(3-carboxy-propylcarbamoyl)-thiazol-2-yl]-ethyl}-2-methyl-propyl)-{3-methyl-2-[(1-methyl-piperidine-2-carbonyl)-amino]-pentanoyl}-amino)-methyl ester] | cytoxicity comparable to the parent tubulysin | – |
| CC[C@H](C)[C@H](NC(=O)[C@H]1CCCCN1C)C(=O)N(COC(=O)CC(C)C)[C@H](C[C@@H](OC(C)=O)c1nc(C(=O)O)cs1)C(C)C [Analogue 5, 2-[1-acetoxy-4-methyl-3-((3-methyl-butyryloxymethyl)-{3-methyl-2-[(1-methyl-piperidine-2-carbonyl)-amino]-pentanoyl}-amino)-pentyl]-thiazole-4-carboxylic acid] | maintained good activity | – |
| CC[C@H](C)[C@H](NC(=O)[C@H]1CCCCN1C)C(=O)N(COC(=O)CC(C)C)[C@H](C[C@@H](O)c1nc(C(=O)N[C@@H](Cc2ccccc2)C[C@H](C)C(=O)O)cs1)C(C)C [Analogue 9] | minimal drop in cytotoxicity relative to the natural product | IC50 ([2]; SW480, 120 h, human colon adenocarcinoma (ATCC CCL-228), MTT after 5 days, read-out: IC50 (ng/mL) SW-480): 0.057 ng/mL (≈ 0.0725 nM); IC50 ([1]; L929, 120 h, mouse fibroblasts (DSMZ ACC 2), MTT after 5 days, read-out: IC50 (ng/mL) L929): 0.25 ng/mL (≈ 0.318 nM); IC50 [3]: 0.22 ng/mL (≈ 0.28 nM) |
| CC[C@H](C)[C@H](NC(=O)[C@H]1CCCCN1C)C(=O)N(COC(=O)CC(C)C)[C@H](C[C@@H](OC(C)=O)c1nc(C(=O)NC)cs1)C(C)C [Analogue 4, 3-methyl-butyric acid ({1-[2-acetoxy-2-(4-methylcarbamoyl-thiazol-2-yl)-ethyl]-2-methyl-propyl}-{3-methyl-2-[(1-methyl-piperidine-2-carbonyl)-amino]-pentanoyl}-amino)-methyl ester] | maintained good activity | – |
| CC[C@H](C)[C@H](NC(=O)[C@H]1CCCCN1C)C(=O)N(C)[C@H](C[C@@H](OC(C)=O)c1nc(C(=O)N[C@@H](Cc2ccccc2)C[C@H](C)C(=O)O)cs1)C(C)C [Analogue 10, 4-({2-[1-Acetoxy-4-methyl-3-(methyl-{3-methyl-2-[(1-methyl-piperidine-2-carbonyl)-amino]-pentanoyl}-amino)-pentyl]-thiazole-4-carbonyl}-amino)-2-methyl-5-phenyl-pentanoic acid] | – | Activity relative to tubulysin D in SW-480, in words [2]: more active than tubulysin D |
| CC[C@H](C)[C@H](NC(=O)[C@H]1CCCCN1C)C(=O)N(C)[C@H](C[C@@H](OC(C)=O)c1nc(C(=O)NC)cs1)C(C)C [Analogue 11, acetic acid 4-methyl-1-(4-methylcarbamoyl-thiazol-2-yl)-3-(methyl-{3-methyl-2-[(1-methyl-piperidine-2-carbonyl)-amino]-pentanoyl}-amino)-pentyl ester] | – | IC50 at 5 days [4]: 2 ng/mL (≈ 3.62 nM) |
| CC[C@H](C)[C@H](NC(C)=O)C(=O)N(COC(=O)CC(C)C)[C@H](C[C@@H](OC(C)=O)c1nc(C(=O)N[C@@H](Cc2ccccc2)C[C@H](C)C(=O)O)cs1)C(C)C [Analogue 7] | drastic decrease in activity | – |
| CC[C@H](C)[C@H](NC(=O)[C@H]1CCCCN1C)C(=O)N(COC(=O)CC(C)C)[C@H](C[C@@H](OC(C)=O)c1nc(C(=O)NCCc2ccccc2)cs1)C(C)C [Analogue 2, 3-methyl-butyric acid ({1-[2-acetoxy-2-(4-phenethylcarbamoyl-thiazol-2-yl)-ethyl]-2-methyl-propyl}-{3-methyl-2-[(1-methyl-piperidine-2-carbonyl)-amino]-pentanoyl}-amino)-methyl ester] | cytoxicity comparable to the parent tubulysin | – |
